The results in this text go back to patent publication US20230116602A1, “MCL1 INHIBITORS AND USES THEREOF” (California Institute of Technology, priority 2019, published 2023).

For assay [1], the system named is drug-sensitive cell lines of Table 3. In words: Cell line growth retardation assay, sensitive cohort. The conditions noted are these: for IC50: arithmetic mean of IC50s over the sensitive cohort of Table 3, 6 days growth, read-out: AvgSen IC50; for Fold Diff: average IC50 of resistant cohort divided by average IC50 of sensitive cohort. The format is cell-based, Human. The gist of the method:
(§1)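 Cell lines classed as MCL1-inhibition sensitive or resistant were seeded, rested 24 h, then exposed to 10–0.0032 μM compound for 6 days. Cells were counted by imaging; growth inhibition was the ratio of population doublings with vs without compound from a pre-treatment baseline. IC50 from curve fits, averaged per cohort.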

For another assay, the target named is BCLXL (Homo sapiens, UniProt Q07817). Kind of assay: BCLXL affinity assay (competition binding, qPCR readout). To be noted: recombinant BCLXL, 11-point 3-fold dilution series. On the procedure: (§2) Recombinant MCL1, BCL2 and BCXL proteins were prepared in either an E. coli host derived from the BL21 strain or in HEK-293 cells. The recombinant proteins were subsequently tagged with DNA for qPCR detection. Streptavidin-coated magnetic beads were treated for 30 minutes at room temperature with the respective biotinylated peptide ligands for each recombinant protein to generate affinity resins for the assays. The liganded beads were blocked with excess biotin and washed with blocking buffer (SeaBlock (Pierce), 1% BSA, 0.05% Tween 20, 1 mM DTT) to remove unbound ligand and to reduce nonspecific binding. Binding reactions were assembled by combining recombinant protein, liganded affinity beads, and test compounds in 1× binding buffer (20% SeaBlock, 0.17×PBS, 0.05% Tween 20, 6 mM DTT). Test compounds were prepared as 111X stocks in 100% DMSO. The compounds were then diluted directly into the assays such that the final concentration of DMSO was 0.9%. The assay plates were incubated at room temperature with shaking for 1 hour and the affinity beads were washed with wash buffer (1×PBS, 0.05% Tween 20). The beads were then re-suspended in elution buffer (1×PBS, 0.05% Tween 20, 0.5 μM non-biotinylated affinity ligand) and incubated at room temperature with shaking for 30 minutes. The recombinant protein concentration in the eluates was measured by qPCR. Kds were determined using an 11-point 3-fold compound dilution series with three DMSO control points.

The target in a further assay is MCL1 (Homo sapiens, UniProt Q07820). Kind of assay: MCL1 affinity assay (competition binding, qPCR readout). The conditions noted are these: recombinant MCL1, 11-point 3-fold dilution series. The gist of the method: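 Competition binding: DNA-tagged recombinant protein (E. coli BL21-derived or HEK-293), biotinylated peptide ligand-loaded streptavidin beads and compound incubated 1 hour at room temperature, 0.9% DMSO final. Bound protein eluted with 0.5 μM non-biotinylated ligand and quantified by qPCR; Kd from 11-point 3-fold dilution series.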
(In general: Quantitative PCR measures a nucleic acid by following its amplification.)

The test system of assay [2] is drug-resistant cell lines of Table 3. Kind of assay: Cell line growth retardation assay, resistant cohort. The format is cell-based, Human. The conditions noted are these: Homo sapiens, 144 h; arithmetic mean of IC50s over the resistant cohort of Table 3, 6 days growth; read-out: AvgRes IC50. The gist of the method: as §1
Another assay addresses BCL2 (Homo sapiens, UniProt P10415). Kind of assay: BCL2 affinity assay (competition binding, qPCR readout). The conditions noted are these: recombinant BCL2, 11-point 3-fold dilution series. The protocol:
as §2

Where two headings read alike, the source gives them in different places. Bounds are passed on as bounds.

Sequence of MCL1 (Q07820 whole entry): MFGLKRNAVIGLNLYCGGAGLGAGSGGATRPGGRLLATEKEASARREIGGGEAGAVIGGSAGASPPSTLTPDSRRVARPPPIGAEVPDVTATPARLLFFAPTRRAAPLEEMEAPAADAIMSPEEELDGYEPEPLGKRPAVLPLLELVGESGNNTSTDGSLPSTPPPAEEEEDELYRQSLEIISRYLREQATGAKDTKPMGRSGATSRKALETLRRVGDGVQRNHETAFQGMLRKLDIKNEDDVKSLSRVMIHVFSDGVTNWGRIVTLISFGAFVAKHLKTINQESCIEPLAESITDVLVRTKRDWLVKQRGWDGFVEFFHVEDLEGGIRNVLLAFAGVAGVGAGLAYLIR
Sequence of BCL2 (P10415 whole entry): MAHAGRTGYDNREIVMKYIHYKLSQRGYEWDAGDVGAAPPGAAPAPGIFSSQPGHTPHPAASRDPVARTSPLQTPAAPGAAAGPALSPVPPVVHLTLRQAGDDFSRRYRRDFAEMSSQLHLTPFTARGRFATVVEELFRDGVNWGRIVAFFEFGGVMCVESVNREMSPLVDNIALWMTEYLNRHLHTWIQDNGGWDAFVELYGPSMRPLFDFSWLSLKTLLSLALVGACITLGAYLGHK
Sequence of BCLXL (Q07817 whole entry): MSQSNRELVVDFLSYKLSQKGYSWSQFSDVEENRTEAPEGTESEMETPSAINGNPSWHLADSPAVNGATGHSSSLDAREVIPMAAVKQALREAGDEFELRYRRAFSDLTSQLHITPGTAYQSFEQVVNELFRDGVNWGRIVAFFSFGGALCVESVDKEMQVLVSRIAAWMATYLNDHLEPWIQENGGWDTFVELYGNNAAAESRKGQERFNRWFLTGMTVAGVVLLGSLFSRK

Turning to `COc1ccccc1-c1nccc(COc2ccccc2C[C@@H](Oc2nsc3cnc(-c4ccc(F)cc4)c(-c4ccc(OCCN5CCN(C)CC5)c(Cl)c4C)c23)C(=O)O)n1` [Compound 40], the IC50 (usually the point on the concentration scale where inhibition reaches its midpoint) in assay [1] (Homo sapiens, 144 h) is not above 1000 nM; in assay [2] it was more than 5000 nM. The “Fold Diff” value in assay [1] is listed as “+ (“+” represents a fold difference of 10 or more)”. For the same molecule, the Kd (usually the free concentration of one partner at which half of the binding sites on the other are occupied at equilibrium, for simple one-to-one binding) was more than 1500 nM on BCLXL, not above 100 nM on MCL1 and more than 1500 nM at BCL2.

As to `Cc1c(-c2c(-c3ccc(F)s3)ncc3snc(O[C@H](Cc4ccccc4OCc4ccnn4CC(F)(F)F)C(=O)O)c23)ccc(OCCN2CCN(C)CC2)c1Cl` (single isomer, unassigned) [Compound 1], the IC50 in assay [1] and in assay [2] was more than 5000 nM in each case. Moreover, in assay [1], the “Fold Diff” value was “− (“−” represents a fold difference less than 10)”. For the same molecule, the Kd at BCLXL, on MCL1 and at BCL2 was more than 1500 nM throughout.

Turning to `Cc1c(-c2c(-c3cnn(C)c3)ncc3snc(O[C@H](Cc4ccccc4OCc4ccnn4CC(F)(F)F)C(=O)O)c23)ccc(OCCN2CCN(C)CC2)c1Cl` (atropisomer, axis not shown) [Compound 28], the values for the Kd on BCLXL, on MCL1 and on BCL2 were more than 1500 nM, 501 to 1500 nM and more than 1500 nM, respectively.

On to `COc1cccc(-c2ncc3snc(O[C@H](Cc4ccccc4OCc4ccnc(-c5ccccc5OC)n4)C(=O)O)c3c2-c2ccc(OC[C@H]3CCCN3C)c(Cl)c2C)c1` (atropisomer, axis not shown) [Compound 48], for which the results for the Kd at BCLXL, on MCL1 and at BCL2 were more than 1500 nM, not above 100 nM and more than 1500 nM, respectively.

Regarding `Cc1c(-c2cc(-n3c(=O)n(C)c4cc(Cl)ccc43)cc3snc(O[C@H](Cc4ccccc4OCc4ccnn4CC(F)(F)F)C(=O)O)c23)ccc(OCCN2CCN(C)CC2)c1Cl` [Compound 99], the IC50 in assay [1] (Homo sapiens, 144 h) is more than 5000 nM; in assay [2] it was more than 5000 nM. The “Fold Diff” value in assay [1] is “− (“−” represents a fold difference less than 10)”. On MCL1, the dissociation constant (Kd) is more than 1500 nM.

As for `COc1cccc(-c2ncc3snc(O[C@H](Cc4ccccc4OCc4ccnc(-c5ccccc5OC(F)F)n4)C(=O)O)c3c2-c2ccc(OCCN3CCN(C)CC3)c(Cl)c2C)c1` (atropisomer, axis not shown) [Compound 66], the IC50 is not above 1000 nM in assay [1] (Homo sapiens, 144 h) and more than 5000 nM in assay [2]. The “Fold Diff” value in assay [1] is given as “+ (“+” represents a fold difference of 10 or more)”. In addition, the Kd on MCL1 was not above 100 nM.

As for `Cc1c(-c2c(N3CC4(COC4)C3)ncc3snc(O[C@H](Cc4ccccc4OCc4ccnn4CC(F)(F)F)C(=O)O)c23)ccc(OCCN2CCN(C)CC2)c1Cl` (atropisomer, axis not shown) [Compound 91], the IC50 in assay [1] (Homo sapiens, 144 h) was more than 5000 nM; in assay [2], more than 5000 nM. For the same molecule, the “Fold Diff” value in assay [1] was “− (“−” represents a fold difference less than 10)”. Also, the Kd on MCL1 is more than 1500 nM.

Regarding `COc1cccc(-c2ncc3snc(O[C@H](Cc4ccccc4OCc4ccnc(-c5ccccc5OC)n4)C(=O)O)c3c2-c2ccc(OCCN3CCN(C)CC3)c(Cl)c2C)c1` (atropisomer, axis not shown) [Compound 39], the IC50 was in the range of 1000 to 5000 nM in assay [1] (Homo sapiens, 144 h) and 1000 to 5000 nM in assay [2]. Also, in assay [1], the “Fold Diff” value was “− (“−” represents a fold difference less than 10)”. In addition, on MCL1, the Kd fell in the range of 501 to 1500 nM.

Consider `COc1ccccc1-c1nccc(COc2ccccc2C[C@@H](Oc2nsc3cnc(-c4cnc(C5CC5)o4)c(-c4ccc(OCCN5CCN(C)CC5)c(Cl)c4C)c23)C(=O)O)n1` (atropisomer, axis not shown) [Compound 78], for which the IC50 in assay [1] (Homo sapiens, 144 h) was 1000 to 5000 nM; in assay [2] it was more than 5000 nM. The “Fold Diff” value in assay [1] is reported as “− (“−” represents a fold difference less than 10)”. The Kd on MCL1 was not above 100 nM.

Take `Cc1c(-c2cc(-c3nccc4cc(Cl)ccc34)cc3snc(O[C@H](Cc4ccccc4OCc4ccnn4CC(F)(F)F)C(=O)O)c23)ccc(OCCN2CCN(C)CC2)c1Cl` [Compound 95]: the IC50 was more than 5000 nM in assay [1] (Homo sapiens, 144 h) and more than 5000 nM in assay [2]. Moreover, the “Fold Diff” value in assay [1] is “− (“−” represents a fold difference less than 10)”. Further, the Kd on MCL1 was more than 1500 nM.

In the case of `Cc1c(-c2cc(-c3nn(C)c4cc(Cl)ccc34)cc3snc(O[C@H](Cc4ccccc4OCc4ccnn4CC(F)(F)F)C(=O)O)c23)ccc(OCCN2CCN(C)CC2)c1Cl` [Compound 94], the IC50 was more than 5000 nM in assay [1] (Homo sapiens, 144 h) and more than 5000 nM in assay [2]. The “Fold Diff” value in assay [1] is given as “− (“−” represents a fold difference less than 10)”. On MCL1, the Kd is more than 1500 nM.

In the case of `COc1cccc(-c2ncc3snc(O[C@H](Cc4ccccc4OCc4ccnc(OCC(F)F)n4)C(=O)O)c3c2-c2ccc(OCCN3CCN(C)CC3)c(Cl)c2C)c1` [Compound 58], the IC50 in assay [1] (Homo sapiens, 144 h) is not above 1000 nM; in assay [2], more than 5000 nM. Besides, the “Fold Diff” value in assay [1] was “+ (“+” represents a fold difference of 10 or more)”. In addition, on MCL1, the Kd is not above 100 nM.

Consider `COc1ccccc1-c1nccc(COc2ccccc2C[C@@H](Oc2nsc3cc(-c4nn(C)c5cc(Cl)ccc45)cc(-c4ccc(OCCN5CCN(C)CC5)c(Cl)c4C)c23)C(=O)O)n1` [Compound 97], for which the IC50 in assay [1] (Homo sapiens, 144 h) is 1000 to 5000 nM; in assay [2], more than 5000 nM. The “Fold Diff” value in assay [1] was “− (“−” represents a fold difference less than 10)”. In addition, at MCL1, the Kd was in the range of 501 to 1500 nM.

In the case of `COc1cccc(-c2ncc3snc(O[C@H](Cc4ccccc4OCc4ccnc(N5CCC(OC)CC5)n4)C(=O)O)c3c2-c2ccc(OCCN3CCN(C)CC3)c(Cl)c2C)c1` (atropisomer, axis not shown) [Compound 70], the IC50 is not above 1000 nM in assay [1] (Homo sapiens, 144 h) and more than 5000 nM in assay [2]. For the same molecule, the “Fold Diff” value in assay [1] is reported as “+ (“+” represents a fold difference of 10 or more)”. Moreover, the Kd at MCL1 lay in the range of 101 to 500 nM.

Turning to `Cc1c(-c2c(C3CCC3)ncc3snc(O[C@H](Cc4ccccc4OCc4ccnc(-c5cccc(S(C)(=O)=O)c5)n4)C(=O)O)c23)ccc(OCCN2CCN(C)CC2)c1Cl` (atropisomer, axis not shown) [Compound 118], the IC50 in assay [1] (Homo sapiens, 144 h) is 1000 to 5000 nM; in assay [2] it was more than 5000 nM. Besides, the “Fold Diff” value in assay [1] is “− (“−” represents a fold difference less than 10)”. Moreover, at MCL1, the dissociation constant (Kd) was not above 100 nM.

As to `Cc1c(-c2c(-c3cccc(F)c3)ncc3snc(O[C@H](Cc4ccccc4OCc4ccnc(OCC(F)(F)F)n4)C(=O)O)c23)ccc(OCCN2CCN(C)CC2)c1Cl` (atropisomer, axis not shown) [Compound 69], the IC50 was not above 1000 nM in assay [1] (Homo sapiens, 144 h) and more than 5000 nM in assay [2]. Also, in assay [1], the “Fold Diff” value is “+ (“+” represents a fold difference of 10 or more)”. Besides, the dissociation constant (Kd) at MCL1 is not above 100 nM.

Consider `COc1cccc(-c2ncc3snc(O[C@H](Cc4ccccc4OCc4ccnc(-c5cc(F)ccc5OC)n4)C(=O)O)c3c2-c2ccc(OCCN3CCN(C)CC3)c(Cl)c2C)c1` (atropisomer, axis not shown) [Compound 67], for which the IC50 in assay [1] (Homo sapiens, 144 h) is not above 1000 nM; in assay [2], more than 5000 nM. Also, the “Fold Diff” value in assay [1] is “+ (“+” represents a fold difference of 10 or more)”. For the same molecule, the Kd at MCL1 is not above 100 nM.

In the case of `COc1ccccc1-c1nccc(COc2ccccc2C[C@@H](Oc2nsc3cnc(C4CC4)c(-c4ccc(OCCN(C)C)c(Cl)c4C)c23)C(=O)O)n1` (atropisomer, axis not shown) [Compound 56], the IC50 is not above 1000 nM in assay [1] (Homo sapiens, 144 h) and more than 5000 nM in assay [2]. The “Fold Diff” value in assay [1] was “+ (“+” represents a fold difference of 10 or more)”. Besides, on MCL1, the Kd is not above 100 nM.
